Source: doi:10.1101/2020.08.03.235622v1 (bioRxiv, 2020)
Read-outs that look alike come from different tables or passages of the source.

Assays:
[1] = system: P. aeruginosa T3SS gene transcription (exoT, exoS, dsbA); experiment: qPCR of T3SS genes in P. aeruginosa; type: cell-based, Pseudomonas aeruginosa; conditions: 60 μM cyclic peptomer; for transcription of exoT: PA103, low calcium, 50 μM MBX1641, 3 hrs
P. aeruginosa PA103 T3SS = type: cell-based, Pseudomonas aeruginosa
Salmonella SPI-1 T3SS = type: cell-based, Salmonella enterica Typhimurium
[2] = system: P. aeruginosa PAO1 T3SS (ExoS, ExsE); type: cell-based, Pseudomonas aeruginosa
HeLa cells = experiment: Host cell viability by LDH release; type: cell-based, human; conditions: 9 μM, infected HeLa cells
flagella (fliC) = conditions: cited from earlier work

CC(Oc1ccc(Cl)cc1Cl)C(=O)NCc1ccc2c(c1)OCO2 (centres unmarked) [MBX1641, reference compound]
transcription of exoT [1]: did

Propylamine, Benzylamine, L-Leu, L-Ile, D-Leu, and D-Phe (PBLLDD) (head to tail) [4EpDN]
T3SS inhibitory activity (ExoU secretion), in words (P. aeruginosa PA103 T3SS): improved activity | IC50 (P. aeruginosa PA103 T3SS; read-out: IC50, ExoU secretion (PA, Psc/Ysc)): 3.9 µM | concentration at which inhibition of SipA secretion was observed (Salmonella SPI-1 T3SS): ~ 1.4 μM | concentration at which inhibition of SipC secretion was observed (Salmonella SPI-1 T3SS): ~ 1 μM | expression of the effectors exoS and exoT ([1]; P. aeruginosa PAO1 lacking all known efflux pumps, 3 hrs): did not affect expression | amount of secreted ExoS [2]: significantly reduced | secretion of the regulator ExsE [2]: did not significantly impact secretion | host cell viability as assayed by LDH release (HeLa cells): without affecting host cell viability

O=[N+]([O-])c1cc(CN2CCN(c3ccc(F)cc3)CC2)c(O)c2ncccc12 [INP1855]
lowest known inhibitory concentration (~), fliC/fla (flagella (fliC)): ~30 µM

O=[N+]([O-])c1cc(CN2CCN(c3ccccc3)CC2)c(O)c2ncccc12 [INP1750]
lowest known inhibitory concentration (~), fliC/fla (flagella (fliC)): ~80 µM

Propylamine, Benzylamine, D-Leu, L-Ile, L-Leu, and D-Phe (PBDLLD) (head to tail) [1EpDN]
IC50 (P. aeruginosa PA103 T3SS; read-out: IC50, inhibition of T3SS effector (ExoU) secretion in P. aeruginosa): ~8 µM | transcription of exoT [1]: did not inhibit transcription of exoT | amount of secreted ExoS [2]: significantly reduced
